From patent publication US20230372365A1, “METHODS OF TREATING FIBROMYALGIA WITH NEUROACTIVE STEROIDS” (priority 2020, published 2023)

How the values were obtained:
α4β3δ GABAA receptor [1] = target: T1, α4β3δ GABAA receptor (Homo sapiens, UniProt O14764+P28472+P48169); test: FLIPR calcium flux, modulation of GABA response; type: cell-based; parameters: expressed in transfected cells; details: comparison of Example 1 data
Method: (§1) Cells expressing the indicated GABAA receptor subtype were exposed to gamma-aminobutyric acid in the presence of varying concentrations of either CV-10155 or SPNC-019, calcium flux was measured using a fluorometric imaging plate reader (FLIPR), and EC50 values for compounds were determined.

GABAA receptor subtypes = test: FLIPR calcium flux, all 18 subtypes taken together; type: cell-based; details: 18 subtypes tested
Method: as §1
The results further indicate that the isomeric purity of compositions containing compounds of Formula (I) greatly impacts the utility of such compositions as therapeutic agents.

[2] = target: picrotoxin binding site of GABAA receptors; details: membranes from cortices of rat brains; read-out: IC50 in the TBPS displacement assay; cited from earlier work
α1β2γ2 GABAA receptors = target: T2, α1β2γ2 GABAA receptors (Homo sapiens, UniProt P14867+P18507+P47870); details: 10 μM steroid, GABA 2 μM (EC20), LTK cells; cited from earlier work
T2 construct: expressed in transfected cells; host or cells: LTK cells, stably transfected

α4β3δ GABAA receptor [3] = target: T1, α4β3δ GABAA receptor; parameters: expressed in transfected cells; host or cells: CHO cells, transiently transfected; details: 10 μM steroid, GABA 2 μM (EC20), CHO cells; cited from earlier work

T1 sequence (P48169 36-554): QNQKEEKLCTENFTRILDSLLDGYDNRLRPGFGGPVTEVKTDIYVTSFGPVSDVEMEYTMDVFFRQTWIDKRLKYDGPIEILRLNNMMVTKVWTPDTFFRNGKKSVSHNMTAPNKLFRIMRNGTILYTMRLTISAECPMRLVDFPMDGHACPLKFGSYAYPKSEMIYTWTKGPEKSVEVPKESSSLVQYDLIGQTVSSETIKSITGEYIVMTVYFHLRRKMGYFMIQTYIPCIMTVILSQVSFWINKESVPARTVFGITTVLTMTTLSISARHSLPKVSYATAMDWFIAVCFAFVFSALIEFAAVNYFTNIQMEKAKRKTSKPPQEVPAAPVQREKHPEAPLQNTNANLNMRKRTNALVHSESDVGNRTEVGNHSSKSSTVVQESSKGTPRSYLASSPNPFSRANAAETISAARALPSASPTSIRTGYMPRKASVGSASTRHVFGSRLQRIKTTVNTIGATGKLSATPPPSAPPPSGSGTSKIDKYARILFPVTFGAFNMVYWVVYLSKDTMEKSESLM
T1 sequence (P28472 26-473): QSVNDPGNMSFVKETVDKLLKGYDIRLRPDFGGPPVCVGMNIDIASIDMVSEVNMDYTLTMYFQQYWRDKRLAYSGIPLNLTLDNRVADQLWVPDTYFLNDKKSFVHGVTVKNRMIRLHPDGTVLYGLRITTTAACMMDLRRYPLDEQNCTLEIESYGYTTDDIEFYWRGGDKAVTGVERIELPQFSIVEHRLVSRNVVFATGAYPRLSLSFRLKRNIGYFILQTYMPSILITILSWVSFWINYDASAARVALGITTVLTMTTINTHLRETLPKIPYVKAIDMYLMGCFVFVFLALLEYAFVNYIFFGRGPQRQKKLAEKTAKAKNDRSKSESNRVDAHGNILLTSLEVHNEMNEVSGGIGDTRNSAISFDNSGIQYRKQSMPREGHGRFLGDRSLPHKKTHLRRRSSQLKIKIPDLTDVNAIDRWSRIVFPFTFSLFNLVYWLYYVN
T1 sequence (O14764 25-452): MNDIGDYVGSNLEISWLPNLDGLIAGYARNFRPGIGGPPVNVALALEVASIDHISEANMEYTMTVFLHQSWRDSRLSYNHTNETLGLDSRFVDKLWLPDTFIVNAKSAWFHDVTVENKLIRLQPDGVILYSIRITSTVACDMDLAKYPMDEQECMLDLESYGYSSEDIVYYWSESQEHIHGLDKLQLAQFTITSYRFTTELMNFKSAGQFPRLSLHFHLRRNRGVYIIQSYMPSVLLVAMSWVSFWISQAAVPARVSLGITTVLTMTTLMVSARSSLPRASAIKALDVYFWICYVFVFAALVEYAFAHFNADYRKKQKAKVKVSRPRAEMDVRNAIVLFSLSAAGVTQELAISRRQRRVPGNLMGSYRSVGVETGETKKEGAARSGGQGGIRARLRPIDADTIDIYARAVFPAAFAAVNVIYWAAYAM
T2 sequence (P14867 28-456): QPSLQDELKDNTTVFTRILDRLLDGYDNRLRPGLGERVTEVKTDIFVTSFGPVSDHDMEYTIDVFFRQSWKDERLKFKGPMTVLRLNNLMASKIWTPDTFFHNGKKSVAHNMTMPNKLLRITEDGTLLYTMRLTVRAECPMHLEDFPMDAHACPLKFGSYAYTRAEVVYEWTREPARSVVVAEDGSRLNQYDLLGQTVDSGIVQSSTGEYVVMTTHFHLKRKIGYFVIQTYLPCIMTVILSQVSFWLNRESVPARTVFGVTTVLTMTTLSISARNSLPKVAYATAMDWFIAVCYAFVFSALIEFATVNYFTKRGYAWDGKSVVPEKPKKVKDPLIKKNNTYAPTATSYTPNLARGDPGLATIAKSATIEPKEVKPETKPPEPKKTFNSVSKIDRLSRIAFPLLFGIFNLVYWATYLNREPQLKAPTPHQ
T2 sequence (P47870 25-512 limits assumed): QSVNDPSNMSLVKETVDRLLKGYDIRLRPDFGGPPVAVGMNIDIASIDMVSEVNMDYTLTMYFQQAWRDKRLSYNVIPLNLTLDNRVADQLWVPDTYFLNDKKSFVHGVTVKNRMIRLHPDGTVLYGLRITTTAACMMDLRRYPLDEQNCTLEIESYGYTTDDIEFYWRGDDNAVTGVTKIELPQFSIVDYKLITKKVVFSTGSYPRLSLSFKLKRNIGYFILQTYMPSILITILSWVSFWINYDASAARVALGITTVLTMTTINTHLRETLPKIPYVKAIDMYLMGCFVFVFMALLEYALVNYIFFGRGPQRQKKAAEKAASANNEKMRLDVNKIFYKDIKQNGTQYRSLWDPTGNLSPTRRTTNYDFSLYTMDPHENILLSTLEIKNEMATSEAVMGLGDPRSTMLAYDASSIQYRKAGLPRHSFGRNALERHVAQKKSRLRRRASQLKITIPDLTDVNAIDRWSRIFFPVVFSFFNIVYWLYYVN
T2 sequence (P18507 40-475): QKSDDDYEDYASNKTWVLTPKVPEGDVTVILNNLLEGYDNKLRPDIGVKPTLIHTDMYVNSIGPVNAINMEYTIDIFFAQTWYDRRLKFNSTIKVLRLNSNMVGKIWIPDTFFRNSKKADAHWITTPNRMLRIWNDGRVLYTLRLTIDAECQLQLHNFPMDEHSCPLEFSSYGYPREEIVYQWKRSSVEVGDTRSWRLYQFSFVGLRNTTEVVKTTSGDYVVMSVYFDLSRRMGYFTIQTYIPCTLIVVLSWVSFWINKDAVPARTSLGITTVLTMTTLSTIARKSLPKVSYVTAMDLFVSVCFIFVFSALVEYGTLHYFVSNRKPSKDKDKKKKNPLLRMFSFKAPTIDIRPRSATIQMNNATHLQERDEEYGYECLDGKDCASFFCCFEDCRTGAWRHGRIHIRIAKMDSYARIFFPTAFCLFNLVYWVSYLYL

With C[C@@]1(O)CC[C@@]2(C)[C@@H](CC[C@@H]3[C@@H]2CC[C@]2(C)[C@@H](C(=O)Cn4cc(C#N)cn4)CC[C@@H]32)C1 [CV-10155, 1-[2-[(3R,5S,8R,9S,10S,13S,14S,17S)-3-hydroxy-3,10,13-trimethyl-1,2,4,5,6,7,8,9,11,12,14,15,16,17-tetradecahydrocyclopenta[a]phenanthren-17-yl]-2-oxoethyl]pyrazole-4-carbonitrile] the “preferential modulation of α4β3δ compared to α1β2γ2 GABAA receptors” value (α4β3δ GABAA receptor [1]) was “preferentially modulate”, the “preferential modulation of α4β3δ compared to α1β2γ2 GABAA receptors” value (α4β3δ GABAA receptor [1]; listed as Formula (I)) was “substantially more active” and the “modulating activity across the GABAA receptor subtypes tested” value (GABAA receptor subtypes) was “some level of positive allosteric modulating activity in all of the GABAA receptor subtypes tested”.
In the case of C[C@@]1(O)CC[C@@]2(C)[C@H](CC[C@@H]3[C@@H]2CC[C@]2(C)[C@@H](C(=O)Cn4cc(C#N)cn4)CC[C@@H]32)C1 [Compound 10], the IC50 [2] is listed as less than 10 nM.
In the case of C[C@@]1(O)CC[C@@]2(C)[C@@H](CC[C@@H]3[C@@H]2CC[C@]2(C)[C@@H](C(=O)Cn4ccc(C#N)n4)CC[C@@H]32)C1 [Compound 121], the “efficacy (relative potentiation of GABA-mediated conductance)” value (α1β2γ2 GABAA receptors) is listed as greater than 500%, the IC50 [2] is listed as 10 to 50 nM and the “efficacy (relative potentiation of GABA-mediated conductance)” value (α4β3δ GABAA receptor [3]) is listed as greater than 500%.
With C[C@]1(O)CC[C@@]2(C)[C@@H](CC[C@@H]3[C@@H]2CC[C@]2(C)[C@@H](C(=O)Cn4cc(C#N)cn4)CC[C@@H]32)C1 [SPNC-019] the “modulating activity across the GABAA receptor subtypes tested” value (GABAA receptor subtypes) was “no modulating activity in 15 of the 18 GABAA receptor subtypes tested”.
